Assay results from patent US20110124523A1, “High Throughput Method for Detecting Apoptosis of Embryonic Stages of Metazoan Helminthic Parasites” (INSTITUTE OF LIFE SCIENCES, priority 2009, published 2011).
Values joined by “and” are separate entries in the source; they are usually repeats but may differ in a detail not shown here. Identical values can stand only once.

Key:
[1] = system: embryonic stages of S. digitata; assay: Presence of cytochrome-c in the cytoplasm, anti cytochrome c-FITC staining; assay type: cell-based, Setaria digitata; settings: 24 hr
Method: Adult female filarial worms Setaria digitata were collected from the peritoneum of cattle, slaughtered at a nearby abattoir in sterile Hanks Balanced Salt Solution (HBSS) medium (Sigma H 2387-1L) and transported to the laboratory in a sterile container. The medium containing 1% glucose (Sigma G 7528), Penicillin 100 units/ml, Streptomycin 100 μg/ml (Sigma P 4333). And Amphotericin-B 0.25 μg/ml (Sigma A 2942) was buffered with NaHCO3 (Sigma S 5761). About 5 to 7 worms were taken in a petridish, washed three times in medium, dissected into small pieces in 10 ml of medium under sterile conditions and incubated at 37° C. for 30 minutes to allow the release of embryonic stages (eggs and microfilariae) into the medium. The embryonic stages were harvested into sterile 15 ml. centrifuge tubes and washed three times by centrifuging at 300 g for 10 minutes each with medium and the final pellet was suspended in 1 ml. of RPMI-1640 medium (Sigma R 8005) supplemented with 10% FBS (Sigma F 2442) The number of embryonic stages of S. digitata in the above preparation were counted using light microscope, and the suspension was taken in RPMI-1640 medium containing 10% FBS at 1×10^5 embryonic stages/ml. One ml. each was dispensed into individual wells of a 24 well tissue culture plate. One set of wells was taken as untreated control containing only medium with 10% FBS. […] Motility of the Mf was scored under an inverted microscope. After appropriate treatment and incubation, each set of the cultured embryonic stages of S. digitata were harvested from the 24 well tissue culture plate separately in 15 ml. sterile centrifuge tubes, washed with PBS twice and stained as per requirement following manufacturer's instructions as described below. This was followed by two times washing with PBS and final suspension of the stained embryonic stages was taken in 0.5 ml of sheath fluid (BD Biosciences 342003) before their acquisition in the flow cytometer (BD FACS Calibur, Becten and Dickinson, USA). Analysis was performed on 10,000-acquired events depicted as Dot Plots and Histogram Plots using Cellquest Pro soft ware. All plots were representative of at least 3 experiments. […] After in vitro culture for 24 hours with apoptosis inducing reagents the embryonic stages were harvested in 15 ml. sterile centrifuge tubes and fixed for 60 minutes at 0° C. in 1% paraformaldehyde (Sigma P 6148) in PBS. The suspension was washed first with PBS and then with 1× permeabilisation buffer (eBioscience 00-8333-56) and finally resuspended in 100 μl of 1× permeabilisation buffer at 1×10^5 embryonic stages per ml. This suspension was then incubated for 45 minutes with 20 μl of anti cytochrome c-FITC (eBioscience 11-6601-82). This was followed by washing with PBS twice and analysis by Flow cytometer.

[2] = system: embryonic stages of S. digitata; assay: Fragmentation of chromosomal DNA, TUNEL staining; assay type: cell-based, Setaria digitata; settings: for GMI (Geometric Mean Intensity) of Fluorescence, TUNEL Staining: 24 hr; for induction of DNA fragmentation (result in words): Mf stages and eggs, TUNEL assay
Method: Adult female filarial worms Setaria digitata were collected from the peritoneum of cattle, slaughtered at a nearby abattoir in sterile Hanks Balanced Salt Solution (HBSS) medium (Sigma H 2387-1L) and transported to the laboratory in a sterile container. The medium containing 1% glucose (Sigma G 7528), Penicillin 100 units/ml, Streptomycin 100 μg/ml (Sigma P 4333). And Amphotericin-B 0.25 μg/ml (Sigma A 2942) was buffered with NaHCO3 (Sigma S 5761). About 5 to 7 worms were taken in a petridish, washed three times in medium, dissected into small pieces in 10 ml of medium under sterile conditions and incubated at 37° C. for 30 minutes to allow the release of embryonic stages (eggs and microfilariae) into the medium. The embryonic stages were harvested into sterile 15 ml. centrifuge tubes and washed three times by centrifuging at 300 g for 10 minutes each with medium and the final pellet was suspended in 1 ml. of RPMI-1640 medium (Sigma R 8005) supplemented with 10% FBS (Sigma F 2442) The number of embryonic stages of S. digitata in the above preparation were counted using light microscope, and the suspension was taken in RPMI-1640 medium containing 10% FBS at 1×10^5 embryonic stages/ml. One ml. each was dispensed into individual wells of a 24 well tissue culture plate. One set of wells was taken as untreated control containing only medium with 10% FBS. […] Motility of the Mf was scored under an inverted microscope. After appropriate treatment and incubation, each set of the cultured embryonic stages of S. digitata were harvested from the 24 well tissue culture plate separately in 15 ml. sterile centrifuge tubes, washed with PBS twice and stained as per requirement following manufacturer's instructions as described below. This was followed by two times washing with PBS and final suspension of the stained embryonic stages was taken in 0.5 ml of sheath fluid (BD Biosciences 342003) before their acquisition in the flow cytometer (BD FACS Calibur, Becten and Dickinson, USA). Analysis was performed on 10,000-acquired events depicted as Dot Plots and Histogram Plots using Cellquest Pro soft ware. All plots were representative of at least 3 experiments. The distinctly clustered populations obtained consistently in the Dot plots for the intra uterine embryonic stages of S. digitata (FIG. 1 a) were gated for Mfs (R-1) and eggs (R-2 and R-3) and analyzed for different assays for apoptosis as described below. Presence of fragmentation of chromosomal DNA was detected by TUNEL staining. Briefly, the treated embryonic stages were harvested, fixed with 1% Para formaldehyde followed by washing with PBS and stored in 70% ethanol at −20° C.

Row | Compound | GMI (Geometric Mean Intensity) of Fluorescence, Cyt-c Staining ([1]; Eggs, 1 μM) | GMI (Geometric Mean Intensity) of Fluorescence, Cyt-c Staining ([1]; Microfilariae, 1 μM) | GMI (Geometric Mean Intensity) of Fluorescence, TUNEL Staining ([2]; Eggs, 1 μM) | GMI (Geometric Mean Intensity) of Fluorescence, TUNEL Staining ([2]; Microfilariae, 1 μM) | GMI (Geometric Mean Intensity) of Fluorescence, Cyt-c Staining ([1]; Eggs, 10 μM) | GMI (Geometric Mean Intensity) of Fluorescence, Cyt-c Staining ([1]; Microfilariae, 10 μM) | GMI (Geometric Mean Intensity) of Fluorescence, TUNEL Staining ([2]; Eggs, 10 μM) | induction of DNA fragmentation (result in words) [2] | GMI (Geometric Mean Intensity) of Fluorescence, TUNEL Staining ([2]; Microfilariae, 10 μM) | efficiency in induction of apoptosis (comparison in words) ([2]; Plumbagin compared with H2O2)
1 | CN[C@@H]1C[C@H]2O[C@@](C)([C@@H]1OC)n1c3ccccc3c3c4c(c5c6ccccc6n2c5c31)C(=O)NC4 [Staurosporine] | 54.33 and 61.66 and 57.27 | 6.02 and 4.20 | 65.77 and 60.33 and 71.25 | 10.67 and 10.02 and 12.15 |  |  |  |  |  | 
2 | CC1=CC(=O)c2c(O)cccc2C1=O [Plumbagin] |  |  |  |  | 70.29 and 76.25 and 71.32 | 18.69 and 20.32 and 17.56 | 104.33 and 109.68 and 105.32 | dose dependent induction of DNA fragmentation | 40.65 and 38.97 and 45.76 | more efficient than H2O2 in induction of apoptosis
3 | OO [H2O2] |  |  |  |  | 62.37 and 67.72 and 65.39 | 7.53 and 9.23 and 8.14 | 70.85 and 71.36 and 72.56 | dose dependent induction of DNA fragmentation | 13.62 and 12.52 and 14.16 | 
